Assay results from patent US9643930B2, “Substituted indazole derivatives as in vitro MAO-B inhibitors” (“NTZ LAB” LTD., priority 2013, dated 2017).
Like-named read-outs stand apart in the source and are kept apart here.

Columns and labels:
rat MAO-A = target: T1, rat MAO-A (Rattus norvegicus, UniProt P21396); experiment: Rat MAO-A assay (Amplex Red fluorescence, rat liver mitochondria pre-treated with deprenyl); format: biochemical; details: for inhibition at 10 µM: read-out: rat MAO-A (rat liver mitochondria) % inhibition at 10 μM
T1 construct: from tissue; host or cells: rat liver mitochondria (male Sprague-Dawley rats)
T1 sequence (P21396 1-526): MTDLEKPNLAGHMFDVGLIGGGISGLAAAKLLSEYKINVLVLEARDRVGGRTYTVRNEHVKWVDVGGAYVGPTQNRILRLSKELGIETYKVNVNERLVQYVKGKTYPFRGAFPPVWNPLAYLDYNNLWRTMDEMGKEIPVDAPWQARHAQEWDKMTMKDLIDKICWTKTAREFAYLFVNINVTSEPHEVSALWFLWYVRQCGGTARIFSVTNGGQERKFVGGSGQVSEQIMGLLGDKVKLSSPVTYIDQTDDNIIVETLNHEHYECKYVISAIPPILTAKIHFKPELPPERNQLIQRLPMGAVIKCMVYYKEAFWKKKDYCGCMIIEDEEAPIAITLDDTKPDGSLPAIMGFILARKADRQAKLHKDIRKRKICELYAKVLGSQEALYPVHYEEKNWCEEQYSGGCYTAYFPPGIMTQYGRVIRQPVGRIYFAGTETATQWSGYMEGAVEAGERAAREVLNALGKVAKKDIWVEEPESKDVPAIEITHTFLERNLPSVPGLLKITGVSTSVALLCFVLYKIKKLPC

rat MAO-B = target: T2, rat MAO-B (Rattus norvegicus, UniProt P19643); experiment: Rat MAO-B assay (Amplex Red fluorescence, rat liver mitochondria pre-treated with clorgyline 30 nM); format: biochemical
T2 construct: from tissue; host or cells: rat liver mitochondria (male Sprague-Dawley rats)
T2 sequence (P19643 1-520): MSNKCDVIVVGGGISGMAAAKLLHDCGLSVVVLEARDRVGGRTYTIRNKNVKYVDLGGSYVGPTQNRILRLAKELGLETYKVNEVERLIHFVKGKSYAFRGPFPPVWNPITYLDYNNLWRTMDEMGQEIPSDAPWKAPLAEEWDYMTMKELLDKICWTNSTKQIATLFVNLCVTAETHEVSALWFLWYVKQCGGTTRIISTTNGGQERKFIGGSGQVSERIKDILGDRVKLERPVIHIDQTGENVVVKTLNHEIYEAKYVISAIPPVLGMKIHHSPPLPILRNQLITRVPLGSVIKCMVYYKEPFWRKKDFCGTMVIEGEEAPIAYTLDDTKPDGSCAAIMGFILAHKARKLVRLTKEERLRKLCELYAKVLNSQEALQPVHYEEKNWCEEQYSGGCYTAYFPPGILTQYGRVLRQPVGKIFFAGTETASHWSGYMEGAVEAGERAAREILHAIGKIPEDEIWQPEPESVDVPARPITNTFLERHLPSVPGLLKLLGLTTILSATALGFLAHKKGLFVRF

human MAO-A = target: T3, human MAO-A (Homo sapiens, UniProt P21397); experiment: Human MAO-A assay (recombinant enzyme, Amplex Red fluorescence); details: for inhibition at 10 µM: read-out: human MAO-A % inhibition at 10 μM
T3 sequence (P21397 1-527): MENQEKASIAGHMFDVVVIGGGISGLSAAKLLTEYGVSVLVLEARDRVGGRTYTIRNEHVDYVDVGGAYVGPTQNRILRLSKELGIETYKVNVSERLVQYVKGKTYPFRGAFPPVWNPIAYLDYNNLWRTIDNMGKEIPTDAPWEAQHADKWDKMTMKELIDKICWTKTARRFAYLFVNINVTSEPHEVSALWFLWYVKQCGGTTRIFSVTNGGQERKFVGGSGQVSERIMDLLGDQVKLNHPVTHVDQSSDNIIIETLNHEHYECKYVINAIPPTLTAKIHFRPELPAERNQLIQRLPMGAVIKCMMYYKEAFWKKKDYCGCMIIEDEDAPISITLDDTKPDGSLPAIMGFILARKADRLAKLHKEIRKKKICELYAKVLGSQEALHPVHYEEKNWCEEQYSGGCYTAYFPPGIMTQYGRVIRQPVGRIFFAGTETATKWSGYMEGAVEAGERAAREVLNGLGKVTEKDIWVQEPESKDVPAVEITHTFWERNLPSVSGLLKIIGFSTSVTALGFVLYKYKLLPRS

human MAO-B = target: T4, human MAO-B (Homo sapiens, UniProt P27338); experiment: Human MAO-B assay (recombinant enzyme, Amplex Red fluorescence); format: biochemical; design: purchased Sigma-Aldrich M7441; host or cells: baculovirus-infected insect cells (microsomal product); details: p-tyramine 150 μM
T4 sequence (P27338 1-520): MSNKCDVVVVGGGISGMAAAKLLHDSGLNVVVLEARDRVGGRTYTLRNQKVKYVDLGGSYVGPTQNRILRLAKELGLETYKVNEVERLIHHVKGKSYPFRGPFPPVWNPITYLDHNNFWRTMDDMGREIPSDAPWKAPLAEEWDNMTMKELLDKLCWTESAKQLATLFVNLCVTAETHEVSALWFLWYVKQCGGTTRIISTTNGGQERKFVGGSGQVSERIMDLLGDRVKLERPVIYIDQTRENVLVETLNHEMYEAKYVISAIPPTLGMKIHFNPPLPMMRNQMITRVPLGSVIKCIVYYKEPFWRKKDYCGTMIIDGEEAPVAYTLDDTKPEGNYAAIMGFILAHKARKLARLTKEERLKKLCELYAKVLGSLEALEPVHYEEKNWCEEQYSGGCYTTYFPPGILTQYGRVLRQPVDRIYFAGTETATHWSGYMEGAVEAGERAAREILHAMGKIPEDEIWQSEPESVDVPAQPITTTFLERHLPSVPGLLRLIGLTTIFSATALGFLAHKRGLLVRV

[1] = rat liver mitochondria, substrate p-tyramine, read-out: rat MAO-A (rat liver mitochondria) IC50
[2] = at 10 μM, rat liver mitochondria
[3] = rat liver mitochondria pre-treated with clorgyline 30 nM, read-out: rat MAO-B (rat liver mitochondria) IC50
[4] = read-out: human MAO-A IC50, recombinant human enzyme, p-tyramine 150 μM

| melting point [°C] | Structure (SMILES) | IC50 (rat MAO-A; [1]) [nM] | inhibition at 10 µM (rat MAO-A; [2]) [%] | IC50 (rat MAO-B; [3]) [nM] | IC50 (human MAO-A) [nM] | inhibition at 10 µM (human MAO-A) [%] | IC50 (human MAO-B) [nM] | IC50 (rat MAO-A) [nM] | IC50 (rat MAO-B) [nM] | IC50 (human MAO-A; [4]) [nM] | inhibition at 10 µM (rat MAO-A) [%] |
| --- | --- | --- | --- | --- | --- | --- | --- | --- | --- | --- | --- |
| 258.3 to 261.3 | COc1ccc(NC(=O)c2ccc3[nH]ncc3c2)cc1OC [Example 7, N-(3,4-dimethoxyphenyl)-1H-indazole-5-carboxamide] | > 10000 | 9 | 1400 ± 56 | > 10000 | 9 | 185 ± 21 | – | – | – | – |
| 276.2 to 277.8 | COc1ccc(NC(=O)c2ccc3[nH]ncc3c2)cc1Cl [Example 3, N-(3-chloro-4-methoxy)-1H-indazole-5-carboxamide] | > 10000 | 13 | 21.9 ± 3.4 | > 10000 | 30 | 3.42 ± 0.28 | – | – | – | – |
| – | Cn1ncc2cc(/C=N/c3ccc(Cl)c(Cl)c3)ccc21 [Example 26, (E)-3,4-dichloro-N-((1-methyl-1H-indazole-5-yl)methylene)aniline] | – | 23 | – | – | 57 | – | – | – | – | – |
| 233.8 to 234.8 | O=C(Nc1ccc(Cl)c(Cl)c1)c1ccc2[nH]ccc2c1 [Example 2, N-(3,4-dichlorophenyl)-1H-indole-5-carboxamide] | – | 70 | – | – | 88 | – | – | – | – | – |
| 272.2 to 273.4 | O=C(Nc1ccc(O)c(Cl)c1)c1ccc2[nH]ncc2c1 [Example 5, N-(3-chloro-4-hydroxyphenyl)-1H-indazole-5-carboxamide] | < 10000 | 60 | 941 ± 51 | > 10000 | 33 | 123 ± 16 | – | – | – | – |
| – | Cn1cc2cc(C(=O)Nc3ccc(Cl)c(Cl)c3)ccc2n1 [Example 14, N-(3,4-dichlorophenyl)-2-methyl-2H-indazole-5-carboxamide] | – | – | 22.5 ± 0.6 | – | – | 1.44 ± 0.41 | – | – | – | – |
| – | O=C(Nc1cnc(Cl)c(Cl)c1)c1ccc2[nH]ncc2c1 [Example 12, N-(5,6-dichloropyridin-3-yl)-1H-indazole-5-carboxamide] | < 10000 | 59 | 26.6 ± 1.5 | < 10000 | 52 | 5.42 ± 0.2 | – | – | – | – |
| – | COCCn1ncc2cc(C(=O)Nc3ccc(Cl)c(Cl)c3)ccc21 [Example 21, N-(3,4-dichlorophenyl)-1-(2-methoxyethyl)-1H-indazole-5-carboxamide] | < 10000 | 57 | – | – | 81 | – | – | – | – | – |
| – | O=C(Nc1ccc(F)c(F)c1)c1ccc2[nH]ncc2c1 [Example 11, N-(3,4-difluorophenyl)-1H-indazole-5-carboxamide] | > 10000 | 13 | 8.89 ± 0.05 | > 10000 | 36 | 1.59 ± 0.16 | – | – | – | – |
| – | O=C(Nc1ccc(Cl)c(F)c1)c1ccc2[nH]ncc2c1 [Example 10, N-(4-chloro-3-fluorophenyl)-1H-indazole-5-carboxamide] | > 10000 | 30 | 2.61 ± 0.68 | < 10000 | 55 | 0.668 ± 0.053 | – | – | – | – |
| – | Fc1cc(/N=C/c2ccc3[nH]ncc3c2)ccc1Cl [Example 23, (E)-N-((1H-indazol-5-yl)methylene)-4-chloro-3-fluoroaniline] | – | 27 | – | > 10000 | 44 | 1.91 ± 0.27 | > 10000 | 25.2 ± 0.11 | – | – |
| 178.9 to 180.3 | Cn1ccc2cc(C(=O)Nc3ccc(Cl)c(Cl)c3)ccc21 [Example 16, N-(3,4-dichlorophenyl)-1-methyl-1H-indole-5-carboxamide] | – | 3 | – | – | 13 | – | – | – | – | – |
| – | Clc1ccc(/N=C/c2ccc3[nH]ncc3c2)cc1Cl [Example 22, (E)-N-((1H-indazol-5-yl)methylene)-3,4-dichloroaniline] | – | 43 | – | – | 62 | – | – | – | – | – |
| – | Cn1cc2cc(C(=O)Nc3ccc(F)c(F)c3)ccc2n1 [Example 20, N-(3,4-difluorophenyl)-2-methyl-2H-indazole-5-carboxamide] | 1880 ± 93 | 83 | 221 ± 21 | – | – | 38.4 ± 1.8 | – | – | 764 ± 40 | – |
| – | Fc1ccc(/N=C/c2ccc3[nH]ncc3c2)cc1Cl [Example 24, (E)-N-((1H-indazol-5-yl)methylene)-3-chloro-4-fluoroaniline] | – | 35 | – | < 10000 | 54 | 2.1 ± 0.3 | > 10000 | 6.08 ± 0.52 | – | – |
| – | Cn1ncc2cc(C(=O)Nc3ccc(F)c(F)c3)ccc21 [Example 19, N-(3,4-difluorophenyl)-1-methyl-1H-indazole-5-carboxamide] | > 10000 | 18 | 5.65 ± 0.48 | > 10000 | 46 | 1.52 ± 0.18 | – | – | – | – |
| 302.7 to 304.8 | O=C(Nc1cc(Cl)cc(Cl)c1)c1ccc2[nH]ncc2c1 [Example 8, N-(3,5-dichlorophenyl)-1H-indazole-5-carboxamide] | – | 5 | – | < 10000 | 65 | – | – | – | – | – |
| – | Cn1cc2cc(C(=O)Nc3ccc(F)c(Cl)c3)ccc2n1 [Example 18, N-(3-chloro-4-fluorophenyl)-2-methyl-2H-indazole-5-carboxamide] | 1690 ± 143 | 90 | 20.3 ± 3 | – | 95 | 8.08 ± 1.05 | – | – | 562 ± 62 | – |
| – | Cn1ncc2cc(C(=O)Nc3ccc(F)c(Cl)c3)ccc21 [Example 17, N-(3-chloro-4-fluorophenyl)-1-methyl-1H-indazole-5-carboxamide] | – | – | 1.36 ± 0.13 | – | – | – | – | – | – | 29 |
| – | O=C(Nc1ccc(Cl)c(Cl)c1)c1ccc2[nH]ncc2c1 [Example 1] | – | 42 | – | – | 46 | – | – | – | – | – |
| – | Clc1cc(/N=C/c2ccc3[nH]ncc3c2)cnc1Cl [Example 25, (E)-N-((1H-indazol-5-yl)methylene)-5,6-dichloropyridin-3-amine] | – | 45 | – | < 10000 | 67 | 0.474 ± 0.02 | > 10000 | 1.48 ± 0.07 | – | – |
| – | O=C(Nc1ccc(F)c(Cl)c1)c1ccc2[nH]ncc2c1 [Example 9, N-(3-chloro-4-fluorophenyl)-1H-indazole-5-carboxamide] | > 10000 | 17 | – | > 10000 | 40 | – | – | – | – | – |
